Like-named read-outs stand apart in the source and are kept apart here.
Legend:
[1] = tested on: 3D7-A10 or Dd2-B2 parasites; conditions: 3 × IC50^72h drug concentrations; ref Phillips et al., 2015; cited from earlier work
[2] = tested on: Plasmodium falciparum 3D7-A10 parasites; assay: Stage specificity assay (8-h exposure of synchronized stages, IC50^8h); type: cell-based; conditions: for IC50: Plasmodium falciparum
[3] = tested on: asynchronous 3D7-A10 parasite cultures; assay: Standard 72-h exposure asexual blood stage susceptibility assay (IC50^72h); type: cell-based, Plasmodium falciparum; conditions: Plasmodium falciparum, 3D7, 72 h, read-out: Overall (72hr assay) Mean IC50 (IC50^72h)
[4] = tested on: 3D7-MR4 trophozoite parasite-infected RBCs; assay: Metabolomic profiling (hydrophilic metabolite changes, UHPLC-MS); type: cell-based, Plasmodium falciparum
[5] = tested on: 3D7-MR4 trophozoite parasite-infected RBCs; conditions: 10 × IC50^72h; ref Allman et al., 2016; cited from earlier work

Cc1cc(Nc2ccc(S(F)(F)(F)(F)F)cc2)n2nc(C(C)(F)F)nc2n1 [DSM265, reference compound]
minimum inoculum for resistance [1]: 2 × 10^6 parasites
Ratio lowest IC50 8hr/IC50 72hr ([2]; 3D7-A10): 2.0
overall activity profile (stages on which active) ([2]; 8-h exposures): activity against late trophozoites only
killing in stage specificity assay ([2]; 8-h exposures, survival curves): incomplete killing
IC50 ([2]; 3D7, read-out: Early rings Mean IC50, shift 2): 4.82 µM
IC50 ([2]; 3D7, read-out: Early trophozoites Mean IC50, shift 1): 0.0102 µM
IC50 ([2]; 3D7, read-out: Early trophozoites Mean IC50, shift 2): 1.48 µM
IC50 ([2]; 3D7, read-out: Late rings Mean IC50, shift 2): 1.49 µM
IC50 ([2]; 3D7, read-out: Late trophozoites Mean IC50, shift 1): 0.0077 µM
IC50 ([2]; 3D7, read-out: Schizonts IC50, shift 2): > 25 µM
IC50 ([2]; 3D7, read-out: Schizonts Mean IC50, shift 1): 0.0192 µM
shape of survival curve ([2]; early trophozoite and schizont stages): biphasic survival curve
Stage of peak activity (Figure 6) ([2]; period when the parasite was most susceptible (lowest IC50^8h)): late trophozoite stages
Peak Activity (Table S1) ([2]; stage(s) with the lowest IC50^8h): Late Trophs
IC50 [3]: 0.0038 µM
Log2(fold changes) 3-phosphoglycerate ([4]; metabolite 3-phosphoglycerate, log2 fold change): 0.0300
Log2(fold changes) 4-Pyridoxic acid ([4]; metabolite 4-Pyridoxic acid, log2 fold change): -1.9900
Log2(fold changes) 4-aminobutyrate ([4]; metabolite 4-aminobutyrate, log2 fold change): 0.1300
Log2(fold changes) 4-phosphopantetheine ([4]; metabolite 4-phosphopantetheine, log2 fold change): 0.0000
Log2(fold changes) 4-phosphopantothenate ([4]; metabolite 4-phosphopantothenate, log2 fold change): -0.1800
Log2(fold changes) 5-aminopentanoic acid ([4]; metabolite 5-aminopentanoic acid, log2 fold change): 0.0000
Log2(fold changes) 5-methyl-THF ([4]; metabolite 5-methyl-THF, log2 fold change): 0.0000
Log2(fold changes) 5-phosphoribosyl-1-pyrophosphate ([4]; metabolite 5-phosphoribosyl-1-pyrophosphate, log2 fold change): -0.0200
Log2(fold changes) 6-phospho-D-gluconate ([4]; metabolite 6-phospho-D-gluconate, log2 fold change): 0.2100
Log2(fold change) HVDD ([4]; metabolite HVDD): 0.0000
Log2(fold change) Hydroxyisocaproic acid ([4]; metabolite Hydroxyisocaproic acid): 0.0000
Log2(fold change) IDP ([4]; metabolite IDP): 0.0000
Log2(fold change) IMP ([4]; metabolite IMP): 0.1000
Log2(fold change) Inositol ([4]; metabolite Inositol): 0.0000
Log2(fold change) Isopentyl-PP ([4]; metabolite Isopentyl-PP): 0.0000
Log2(fold change) L-arginino-succinate ([4]; metabolite L-arginino-succinate): 0.0000
Log2(fold change) LD ([4]; metabolite LD): 0.0100
Log2(fold change) Myristoyl/tetradecanoyl-CoA ([4]; metabolite Myristoyl/tetradecanoyl-CoA): 0.0000
Log2(fold change) N-Acetyl-L-alanine ([4]; metabolite N-Acetyl-L-alanine): -0.3700
Log2(fold change) N-acetyl-L-ornithine ([4]; metabolite N-acetyl-L-ornithine): -0.2000
Log2(fold change) N-acetyl-glucosamine-1/6-phosphate ([4]; metabolite N-acetyl-glucosamine-1/6-phosphate): -0.7400
Log2(fold change) N-acetyl-glutamate ([4]; metabolite N-acetyl-glutamate): 0.0900
Log2(fold change) N-acetyl-glutamine ([4]; metabolite N-acetyl-glutamine): -0.1600
Log2(fold change) N-carbamoyl-L-aspartate ([4]; metabolite N-carbamoyl-L-aspartate): 4.8500
Log2(fold change) NAD+ ([4]; metabolite NAD+): 0.1500
Log2(fold change) NADH ([4]; metabolite NADH): 0.7500
Log2(fold change) NADP+ ([4]; metabolite NADP+): 0.0800
Log2(fold change) NADPH ([4]; metabolite NADPH): 0.6400
Log2(fold change) O-acetyl-L-serine ([4]; metabolite O-acetyl-L-serine): 0.0000
Log2(fold change) Octoluse 8/1P ([4]; metabolite Octoluse 8/1P): 0.2400
Log2(fold change) Octoluse Bisphosphate ([4]; metabolite Octoluse Bisphosphate): -0.2600
Log2(fold change) PD ([4]; metabolite PD): -0.0800
Log2(fold change) PE ([4]; metabolite PE): -0.3900
Log2(fold change) PEE ([4]; metabolite PEE): -0.4300
Log2(fold change) PEEK ([4]; metabolite PEEK): -0.3200
Log2(fold change) PVNF ([4]; metabolite PVNF): -0.8600
Log2(fold change) Pyroglutamic acid ([4]; metabolite Pyroglutamic acid): 0.0900
Log2(fold change) Pyrophosphate ([4]; metabolite Pyrophosphate): 0.2500
Log2(fold change) Ribose-5-phosphate ([4]; metabolite Ribose-5-phosphate): 0.0000
Log2(fold change) S-adenosyl-L-homocysteine ([4]; metabolite S-adenosyl-L-homocysteine): -1.4900
Log2(fold change) S-adenosyl-L-methioninamine ([4]; metabolite S-adenosyl-L-methioninamine): 0.0000
Log2(fold change) S-adenosyl-L-methionine ([4]; metabolite S-adenosyl-L-methionine): 0.0000
Log2(fold change) S-methyl-5'-thioadenosine ([4]; metabolite S-methyl-5'-thioadenosine): -0.0400
Log2(fold change) SD ([4]; metabolite SD): -0.2500
Log2(fold change) SDL ([4]; metabolite SDL): 0.0000
Log2(fold change) SID ([4]; metabolite SID): 0.0000
Log2(fold change) Sedoheptulose bisphosphate ([4]; metabolite Sedoheptulose bisphosphate): 0.0300
Log2(fold change) Thiamine pyrophosphate ([4]; metabolite Thiamine pyrophosphate): 0.0000
Log2(fold changes) UDP-D-glucose ([4]; metabolite UDP-D-glucose, log2 fold change): 0.0500
Log2(fold changes) UDP-D-glucuronate ([4]; metabolite UDP-D-glucuronate, log2 fold change): 0.0200
Log2(fold changes) UDP-N-acetyl-glucosamine ([4]; metabolite UDP-N-acetyl-glucosamine, log2 fold change): -0.1200
Log2(fold changes) UDP ([4]; metabolite UDP, log2 fold change): -1.5400
Log2(fold changes) UMP ([4]; metabolite UMP, log2 fold change): -0.9900
Log2(fold changes) UTP ([4]; metabolite UTP, log2 fold change): -1.4400
Log2(fold change) hydroxyphenylpyruvate ([4]; metabolite hydroxyphenylpyruvate): 0.0000
Log2(fold change) hydroxyproline/Aminolevulinate ([4]; metabolite hydroxyproline/Aminolevulinate): 0.0000
Log2(fold change) hypoxanthine ([4]; metabolite hypoxanthine): 0.3100
Log2(fold change) indole ([4]; metabolite indole): 0.1900
Log2(fold change) inosine ([4]; metabolite inosine): 0.2300
Log2(fold change) isoleucine ([4]; metabolite isoleucine): 0.0000
Log2(fold change) lactate ([4]; metabolite lactate): -0.1200
Log2(fold change) leucine ([4]; metabolite leucine): 0.0000
Log2(fold change) lysine ([4]; metabolite lysine): 0.0000
Log2(fold change) malate ([4]; metabolite malate): -0.2600
Log2(fold change) maleic acid ([4]; metabolite maleic acid): 0.0000
Log2(fold change) methionine ([4]; metabolite methionine): 0.0000
Log2(fold change) myo-inositol ([4]; metabolite myo-inositol): -0.8500
Log2(fold change) nicotinamide mononucleotide ([4]; metabolite nicotinamide mononucleotide): 0.0000
Log2(fold change) nicotinate ([4]; metabolite nicotinate): -0.0300
Log2(fold change) ornithine ([4]; metabolite ornithine): -0.1100
Log2(fold change) orotate ([4]; metabolite orotate): -0.2100
Log2(fold change) orotidine-5'-phosphate ([4]; metabolite orotidine-5'-phosphate): 0.0000
Log2(fold change) oxaloacetate ([4]; metabolite oxaloacetate): 0.0000
Log2(fold change) p-aminobenzoate ([4]; metabolite p-aminobenzoate): 0.0000
Log2(fold change) p-hydroxybenzoate ([4]; metabolite p-hydroxybenzoate): 0.2000
Log2(fold change) pantothenate ([4]; metabolite pantothenate): 0.0000
Log2(fold change) phenylalanine ([4]; metabolite phenylalanine): 0.0000
Log2(fold change) phenylpyruvate ([4]; metabolite phenylpyruvate): 1.0600
Log2(fold change) phosphoenolpyruvate ([4]; metabolite phosphoenolpyruvate): 0.0800
Log2(fold change) prephenate ([4]; metabolite prephenate): 0.0000
Log2(fold change) proline ([4]; metabolite proline): 0.0000
Log2(fold change) pyridoxine ([4]; metabolite pyridoxine): 0.0000
Log2(fold change) pyruvate ([4]; metabolite pyruvate): 0.0500
Log2(fold change) riboflavin ([4]; metabolite riboflavin): 0.0000
Log2(fold change) ribose ([4]; metabolite ribose): 0.0000
Log2(fold change) ribose-phosphate ([4]; metabolite ribose-phosphate): 0.2500
Log2(fold change) ribulose-5-phosphate ([4]; metabolite ribulose-5-phosphate): 0.0000
Log2(fold change) serine ([4]; metabolite serine): 0.0000
Log2(fold change) sn-glycerol-3-phosphate ([4]; metabolite sn-glycerol-3-phosphate): 0.1700
Log2(fold change) succinate/Methylmalonic acid ([4]; metabolite succinate/Methylmalonic acid): -0.0400
Log2(fold change) succinyl-CoA/methylmalonyl-CoA ([4]; metabolite succinyl-CoA/methylmalonyl-CoA): 0.0000
Log2(fold change) taurine ([4]; metabolite taurine): 0.0000
Log2(fold change) thiamine ([4]; metabolite thiamine): 0.0000
Log2(fold change) threonine/homoserine ([4]; metabolite threonine/homoserine): 0.0000
Log2(fold change) thymidine ([4]; metabolite thymidine): -0.5100
Log2(fold changes) thymine ([4]; metabolite thymine, log2 fold change): -0.0500
Log2(fold changes) trehalose-6-Phosphate ([4]; metabolite trehalose-6-Phosphate, log2 fold change): 0.0000
Log2(fold changes) tryptophan ([4]; metabolite tryptophan, log2 fold change): 0.0000
Log2(fold changes) tyrosine ([4]; metabolite tyrosine, log2 fold change): 0.0000
Log2(fold changes) uridine ([4]; metabolite uridine, log2 fold change): -0.1000
metabolic signature: increases in the pyrimidine precursors dihydroorotate and N-carbamoyl-L-aspartate (mETC disruption) [5]: observed
